Laboratory results as given in US20200337993A1, “INTRACANALICULAR HYDROGEL INSERTS FOR THE DELIVERY OF ANESTHETICS” (Ocular Therapeutix, Inc., priority 2019, published 2020).
Where two headings read alike, the source gives them in different places.

What was measured:
[1] = Bupivacaine concentrations in tear fluid after intracanalicular administration (LC/MS of Schirmer strip samples); format: in vivo, beagle dogs; conditions: female, beagle, dog, other: intracanalicular, 160 μg; for concentration at 2 day: Day 2, N=3, intracanalicular Inventive Composition insert; for concentration at 3 day: Day 3, N=6, intracanalicular Inventive Composition insert; for concentration at 4 day: Day 4, N=6, intracanalicular Inventive Composition insert; for concentration at 5 day: Day 5, N=3, intracanalicular Inventive Composition insert
Protocol: Corneal wounds were created in both eyes (OU) of ten female beagle dogs on Day 0 using epithelial debridement. Animals were post-operatively monitored and treated with eye drops. The Inventive Composition (IC) containing approximately 160 μg of bupivacaine was inserted into the lower or upper lid punctum of one eye of all ten dogs on Day 0 after corneal wounding and removed on Day 7 after wounding. Clinical ophthalmic examinations (slit-lamp biomicroscopy) were conducted daily on weekdays through Day 7. Fluorescein staining was performed and slit-lamp photographs were taken on Days 0, 3, 5, and 7 (Group 1) or on Days 0, 2, 4, and 7 (Group 2). Corneal esthesiometry was performed at baseline and on Days 0, 3-7, 10-14, 31-35, and 38-42 (Group 1) or on Days 0-4, 7-11, 14, 28-32, and 35-39 (Group 2). General health observations and gross ocular observations were performed daily from Day 1 through Day 11 (Group 1) or Day 8 (Group 2). Body weights were recorded prior to dosing and on Day 7. Tears were collected on Days 3, 4, and 5 (Group 1) or on Days 1, 2, 3, and 4 (Group 2). The two groups were staggered in order to collect tear film samples on days 1, 2, 3, 4 and 5 using Schirmer test strips. Tear film samples were collected in the morning prior to administration of drops, in order to avoid dilution of the samples. Pre and post weights were collected on the tear film strips, and samples were sent to PharmOptima, LLC (Portage, Mich.) for bioanalysis via LC/MS. The PK portion of the study measured concentrations of bupivacaine released from the Inventive Composition into the tear fluid over 5 days following intracanalicular administration in beagle dogs and results are presented in Table 3. Tear fluid samples were collected pre-drop administration to prevent dilution of the bupivacaine concentrations. The PK profile indicates elevated concentrations of bupivacaine in the tear fluid through 4 days with a decrease observed at 5 days.

[2] = In vitro release of bupivacaine from the Inventive Composition in PBS, pH 7.4 at 37° C.; format: physicochemical
[3] = read-out: Bupivacaine concentration in tear fluid, Average
[4] = read-out: Bupivacaine concentration in tear fluid, Maximum
[5] = read-out: Bupivacaine concentration in tear fluid, Median
[6] = read-out: Bupivacaine concentration in tear fluid, Minimum

CCCCN1CCCCC1C(=O)Nc1c(C)cccc1C (stereo not shown) [Bupivacaine, bupivacaine]
concentration at 1 day ([1]; Day 1, N=3, intracanalicular Inventive Composition insert (approx. 160 μg bupivacaine), Groups 1 and 2, read-out: Bupivacaine concentration in tear fluid, Average): 780 ng/mL
concentration at 1 day ([1]; Day 1, N=3, intracanalicular Inventive Composition insert, read-out: Bupivacaine concentration in tear fluid, Maximum): 1520 ng/mL
concentration at 1 day ([1]; Day 1, N=3, intracanalicular Inventive Composition insert, read-out: Bupivacaine concentration in tear fluid, Median): 550 ng/mL
concentration at 1 day ([1]; Day 1, N=3, intracanalicular Inventive Composition insert, read-out: Bupivacaine concentration in tear fluid, Minimum): 280 ng/mL
concentration at 2 day [1, 3]: 380 ng/mL
concentration at 2 day [1, 4]: 770 ng/mL
concentration at 2 day [1, 5]: 230 ng/mL
concentration at 2 day [1, 6]: 150 ng/mL
concentration at 3 day [1, 3]: 740 ng/mL
concentration at 3 day [1, 4]: 1520 ng/mL
concentration at 3 day [1, 5]: 590 ng/mL
concentration at 3 day [1, 6]: 100 ng/mL
concentration at 4 day [1, 3]: 570 ng/mL
concentration at 4 day [1, 4]: 1180 ng/mL
concentration at 4 day [1, 5]: 450 ng/mL
concentration at 4 day [1, 6]: 80 ng/mL
concentration at 5 day [1, 3]: 250 ng/mL
concentration at 5 day [1, 4]: 430 ng/mL
concentration at 5 day [1, 5]: 230 ng/mL
concentration at 5 day [1, 6]: 100 ng/mL
Bupivacaine Release Rate ([2]; in vitro sampling period 0-1 hours (burst phase)): 14.6 µg/h
Bupivacaine Release Rate ([2]; in vitro sampling period 1-18 hours): 3.4 µg/h
Bupivacaine Release Rate ([2]; in vitro sampling period 18-26 hours): 1.5 µg/h
Bupivacaine Release Rate ([2]; in vitro sampling period 26-42 hours): 1.1 µg/h
Bupivacaine Release Rate ([2]; in vitro sampling period 42-68 hours): 1.0 µg/h
Bupivacaine Release Rate ([2]; in vitro sampling period 68-93 hours): 0.6 µg/h
Bupivacaine Release Rate ([2]; in vitro sampling period 93-115 hours): 0.4 µg/h
Bupivacaine Release Rate ([2]; in vitro sampling period 115-168 hours): 0.1 µg/h
